Reference: paper PMC12782889, “A GmNRF5a–GmCERK1–GmCAK1 module mediates chitin/chitosan‐triggered immune response in soybean” (Journal of Integrative Plant Biology, 2025)

Tested on: soybean leaf discs (ROS burst)
Test: Luminol-based ROS burst assay in soybean leaf discs
Format: cell-based, soybean (Glycine max)
Settings: 50 mg/L, leaf discs of soybean Williams, dH2O negative control
Description: To measure the oxidation burst, leaf discs (Ø 0.5 cm) collected from 2-week-old soybean (cultivar Williams) were floated overnight in 200 μL sterile H2O in a 96-well plate. The H2O was replaced with 200 μL reaction buffer containing luminol/peroxidase ([…] luminol, 10 mg/mL peroxidase) and chitooligosaccharides treatments (50 mg/L). flg22 was used as a positive control. The luminescence was measured using a GLOMAX96 microplate luminometer (Promega, Madison, WI, USA). The experiments for MAPK activation were carried out as described previously ([[…] et al., 2014]). The MAPK activation was determined by immunoblots with anti-phospho-p44/42 MAPK antibody (#4370; Cell Signaling, Boston, MA, USA).

CC(=O)N[C@@H]1[C@@H](O)[C@H](O[C@@H]2O[C@H](CO)[C@@H](O[C@@H]3O[C@H](CO)[C@@H](O[C@@H]4O[C@H](CO)[C@@H](O[C@@H]5O[C@H](CO)[C@@H](O)[C@H](O)[C@H]5NC(C)=O)[C@H](O)[C@H]4NC(C)=O)[C@H](O)[C@H]3NC(C)=O)[C@H](O)[C@H]2NC(C)=O)[C@@H](CO)O[C@H]1O [Chitin oligosaccharide (dp5), chitin oligosaccharide]
ROS burst: stronger ROS burst than that of CTOS (dp4)
